Experimental data from article PMC6143625, “A high throughput screen for next-generation leads targeting malaria parasite transmission” (Nature Communications, 2018).

Assays:
[1] = test system: P. falciparum 3D7 asexual blood stages; test: Whole-cell time extended asexual growth assay (pLDH); format: cell-based; details: Plasmodium falciparum, 72 h
Experimental: Asexual activity was assayed via Plasmodium lactate dehydrogenase activity (pLDH), a surrogate of asexual parasite growth. […] 2 µM artesunate and DMSO were used as the positive and negative controls, respectively. […] After plate mixing, NBT reduction was measured by absorbance at 650 nm using Envision (Perkin Elmer).

[2] = test system: P. falciparum stage V female gametocytes (female gamete formation); test: P. falciparum dual gamete formation assay (Pf DGFA), female readout (Pfs25 expression), 48 h carry-over format; format: cell-based, Plasmodium falciparum NF54; details: Plasmodium falciparum, 48 h incubation
[3] = test system: P. falciparum stage V male gametocytes (male gamete formation); test: P. falciparum dual gamete formation assay (Pf DGFA), male readout (exflagellation), 48 h carry-over format; format: cell-based, Plasmodium falciparum NF54; details: Plasmodium falciparum, 48 h incubation
HepG2 human cells = test system: HepG2 human cells; set-up: method as in http://dx.doi.org/10.6019/CHEMBL3507680; details: ref http://dx.doi.org/10.6019/CHEMBL3507680; cited from earlier work
[4] = primary screen, 2 uM, single replicate

NCC1CCN(C2CCN(c3ccc(-c4ccco4)cc3)CC2)C1 (stereo not shown) [DDD01252361]
IC50 ([1]; dose response retest, read-out: IC50 (µM) Asex stages): 1.73 µM
inhibition at 2 µM ([1]; primary screen, 2 uM, read-out: %Inh Asex stages @2uM): 68.3%
IC50 ([2]; 48 h, dose response retest of primary hits, read-out: Female IC50): 3.62 µM
inhibition at 2 µM [2, 4]: 64%
IC50 ([3]; 48 h, dose response retest of primary hits, read-out: Male IC50): 1120 nM
inhibition at 2 µM [3, 4]: 94.8%
%Inh HepG2 @10uM (HepG2 human cells): 101.96%
